Reference: ChEMBL document CHEMBL1134890, “Preparation of oxime dual NK(1)/NK(2) antagonists with reduced NK(3) affinity” (Bioorg Med Chem Lett, 2002)

Tests used:
Format in all cases: cell-based
Neuromedin-K receptor = molecular target: T1, Neuromedin-K receptor (Homo sapiens, UniProt P29371); experiment: Binding affinity against recombinant human tachykinin receptor 3 in CHO cells using [125I][MePhe]-NKB as radioligand
T1 sequence (P29371 whole entry): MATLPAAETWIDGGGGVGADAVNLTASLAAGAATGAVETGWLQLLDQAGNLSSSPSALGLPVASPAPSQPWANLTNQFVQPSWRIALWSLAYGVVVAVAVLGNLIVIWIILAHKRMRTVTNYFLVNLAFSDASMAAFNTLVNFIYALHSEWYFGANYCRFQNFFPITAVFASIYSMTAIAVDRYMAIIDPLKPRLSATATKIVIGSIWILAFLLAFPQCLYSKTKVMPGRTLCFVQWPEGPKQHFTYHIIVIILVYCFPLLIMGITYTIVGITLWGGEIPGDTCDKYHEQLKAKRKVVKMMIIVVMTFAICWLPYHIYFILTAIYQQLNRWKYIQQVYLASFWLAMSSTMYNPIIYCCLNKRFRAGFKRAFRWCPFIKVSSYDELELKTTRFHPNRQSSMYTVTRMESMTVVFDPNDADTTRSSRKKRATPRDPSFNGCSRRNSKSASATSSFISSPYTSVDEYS

Substance-K receptor = molecular target: T2, Substance-K receptor (Homo sapiens, UniProt P21452); experiment: Binding affinity against recombinant human tachykinin receptor 2 in CHO cells using [3H]-NKA as radioligand
T2 sequence (P21452 whole entry): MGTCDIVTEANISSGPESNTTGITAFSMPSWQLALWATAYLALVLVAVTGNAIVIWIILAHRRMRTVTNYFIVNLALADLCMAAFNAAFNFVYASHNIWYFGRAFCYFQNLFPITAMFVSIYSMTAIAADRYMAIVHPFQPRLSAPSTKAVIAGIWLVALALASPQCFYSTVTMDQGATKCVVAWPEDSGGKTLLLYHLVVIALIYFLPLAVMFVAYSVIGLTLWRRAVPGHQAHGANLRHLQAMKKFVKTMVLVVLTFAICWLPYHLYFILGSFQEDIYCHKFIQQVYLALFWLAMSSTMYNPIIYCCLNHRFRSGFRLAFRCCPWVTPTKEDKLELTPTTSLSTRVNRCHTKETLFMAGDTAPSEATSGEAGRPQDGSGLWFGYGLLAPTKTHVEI

Substance-P receptor = Substance-P receptor (Homo sapiens, UniProt P25103); experiment: Binding affinity against recombinant human tachykinin receptor 1 in CHO cells using [3H]-Sar SP as radioligand
Chain of Substance-P receptor (P25103 whole entry): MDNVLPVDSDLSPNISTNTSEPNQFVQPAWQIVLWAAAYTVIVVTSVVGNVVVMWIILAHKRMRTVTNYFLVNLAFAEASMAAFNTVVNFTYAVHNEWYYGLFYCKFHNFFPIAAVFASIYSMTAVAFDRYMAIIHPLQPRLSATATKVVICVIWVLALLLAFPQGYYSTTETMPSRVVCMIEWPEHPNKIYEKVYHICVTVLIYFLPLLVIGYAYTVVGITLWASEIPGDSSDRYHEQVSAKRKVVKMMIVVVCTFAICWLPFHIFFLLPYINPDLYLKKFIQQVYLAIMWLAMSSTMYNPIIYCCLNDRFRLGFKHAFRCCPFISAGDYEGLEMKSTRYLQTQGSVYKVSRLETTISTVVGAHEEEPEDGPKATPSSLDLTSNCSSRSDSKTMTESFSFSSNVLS

| Ki (Neuromedin-K receptor) | Ki (Substance-K receptor) | Ki (Substance-P receptor) | SMILES |
| --- | --- | --- | --- |
| 0.3 nM | 0.5 nM | 0.6 nM | CO/N=C(\CN(C)C(=O)c1cc(Cl)cc(Cl)c1)[C@H](CCN1CCC(N2CCCN([C@H](CO)C(N)=O)C2=O)CC1)c1ccc(Cl)c(Cl)c1 |
| 572 nM | 4 nM | 2 nM | CCN(C/C(=N\OC)[C@H](CCN1CCC(n2c(=O)n(CCOC)c3ccccc32)CC1)c1ccc(Cl)c(Cl)c1)C(=O)c1cc(Cl)cc(Cl)c1 |
| 97 nM | 2.6 nM | 2.5 nM | CCN(C/C(=N\OC)[C@H](CCN1CCC(n2c(=O)[nH]c3ccccc32)CC1)c1ccc(Cl)c(Cl)c1)C(=O)c1cc(Cl)cc(Cl)c1 |
| 20 nM |  |  | CO/N=C(\CN(C)C(=O)c1cc(Cl)cc(Cl)c1)[C@H](CCN1CCC(n2c(=O)n(C)c3ccccc32)CC1)c1ccc(Cl)c(Cl)c1 |
| 2 nM |  |  | CO/N=C(\CN(C)C(=O)c1cc(Cl)cc(Cl)c1)[C@H](CCN1CCC(N2CCCN(Cc3nnn[nH]3)C2=O)CC1)c1ccc(Cl)c(Cl)c1 |
| 2.2 nM | 1.1 nM | 1.1 nM | CO/N=C(\CN(C)C(=O)c1cc(Cl)cc(Cl)c1)[C@H](CCN1CCC(N2CCCN(Cc3ccoc3)C2=O)CC1)c1ccc(Cl)c(Cl)c1 |
| 176 nM | 5.2 nM | 2.4 nM | CCN(C/C(=N\OC)[C@H](CCN1CCC(n2c(=O)n(CC(=O)O)c3ccccc32)CC1)c1ccc(Cl)c(Cl)c1)C(=O)c1cc(Cl)cc(Cl)c1 |
| 231 nM | 4.9 nM | 3.2 nM | CO/N=C(\CN(CCF)C(=O)c1cc(Cl)cc(Cl)c1)[C@H](CCN1CCC(n2c(O)nc3ccccc32)CC1)c1ccc(Cl)c(Cl)c1 |
|  | 0.8 nM |  | CO/N=C(\CN(C)C(=O)c1cc(Cl)cc(Cl)c1)[C@H](CCN1CCC(N2CCCN(CC(C)(C)O)C2=O)CC1)c1ccc(Cl)c(Cl)c1 |
| 1.3 nM | 1.2 nM | 0.9 nM | CNC(=O)CN1CCCN(C2CCN(CC[C@@H](/C(CN(C)C(=O)c3cc(Cl)cc(Cl)c3)=N/OC)c3ccc(Cl)c(Cl)c3)CC2)C1=O |
| 312 nM | 2.8 nM | 2.7 nM | CCN(C/C(=N\OC)[C@H](CCN1CCC(n2c(=O)n(Cc3ccccn3)c3ccccc32)CC1)c1ccc(Cl)c(Cl)c1)C(=O)c1cc(Cl)cc(Cl)c1 |
| 103 nM | 2.5 nM | 157 nM | CO/N=C(\CN(C(=O)c1cc(Cl)cc(Cl)c1)C1CC1)[C@H](CCN1CCC(n2c(O)nc3ccccc32)CC1)c1ccc(Cl)c(Cl)c1 |
| 304 nM | 3.1 nM | 1.2 nM | CO/N=C(\CN(CCF)C(=O)c1cc(Cl)cc(Cl)c1)[C@H](CCN1CCC(n2c(=O)n(CC(=O)O)c3ccccc32)CC1)c1ccc(Cl)c(Cl)c1 |
| 0.5 nM | 0.8 nM | 0.6 nM | CO/N=C(\CN(C)C(=O)c1cc(Cl)cc(Cl)c1)[C@H](CCN1CCC(N2CCCN(CC(=N)NO)C2=O)CC1)c1ccc(Cl)c(Cl)c1 |
| 281 nM | 3.6 nM | 3 nM | CCNC(=O)Cn1c(=O)n(C2CCN(CC[C@@H](/C(CN(CC)C(=O)c3cc(Cl)cc(Cl)c3)=N/OC)c3ccc(Cl)c(Cl)c3)CC2)c2ccccc21 |
| 0.5 nM | 0.9 nM | 0.8 nM | CO/N=C(\CN(C)C(=O)c1cc(Cl)cc(Cl)c1)[C@H](CCN1CCC(N2CCCN(N3CCOCC3)C2=O)CC1)c1ccc(Cl)c(Cl)c1 |
| 0.3 nM | 0.4 nM | 0.8 nM | CO/N=C(\CN(C)C(=O)c1cc(Cl)cc(Cl)c1)[C@H](CCN1CCC(N2CCCN(C(C)(C)C(N)=O)C2=O)CC1)c1ccc(Cl)c(Cl)c1 |

| Ki (Neuromedin-K receptor) | Ki (Substance-K receptor) | Ki (Substance-P receptor) | SMILES |
| --- | --- | --- | --- |
| 10 nM |  |  | CO/N=C(\CN(C)C(=O)c1cc(Cl)cc(Cl)c1)[C@H](CCN1CCC(n2c(=O)[nH]c3ccccc32)CC1)c1ccc(Cl)c(Cl)c1 |
| 945 nM | 4.1 nM | 1.9 nM | CCN(C/C(=N\OC)[C@H](CCN1CCC(n2c(=O)n(CC(=O)NCCOC)c3ccccc32)CC1)c1ccc(Cl)c(Cl)c1)C(=O)c1cc(Cl)cc(Cl)c1 |
| 11.8 nM | 1.2 nM | 1 nM | CO/N=C(\CN(C)C(=O)c1cc(Cl)cc(Cl)c1)[C@H](CCN1CCC(N2CCCN(CC(=O)OCc3ccccc3)C2=O)CC1)c1ccc(Cl)c(Cl)c1 |
| 0.8 nM | 0.7 nM | 0.4 nM | CO/N=C(\CN(C)C(=O)c1cc(Cl)cc(Cl)c1)[C@H](CCN1CCC(N2CCCN(C)C2=O)CC1)c1ccc(Cl)c(Cl)c1 |
| 10.9 nM | 1.2 nM | 1.6 nM | CCOC(=O)[C@@H](Cc1ccc(O)cc1)N1CCCN(C2CCN(CC[C@@H](/C(CN(C)C(=O)c3cc(Cl)cc(Cl)c3)=N/OC)c3ccc(Cl)c(Cl)c3)CC2)C1=O |
| 674 nM | 2.5 nM | 2.3 nM | CCN(C/C(=N\OC)[C@H](CCN1CCC(n2c(=O)n(CC#N)c3ccccc32)CC1)c1ccc(Cl)c(Cl)c1)C(=O)c1cc(Cl)cc(Cl)c1 |
| 0.6 nM | 0.8 nM | 0.9 nM | CO/N=C(\CN(C)C(=O)c1cc(Cl)cc(Cl)c1)[C@H](CCN1CCC(N2CCCN(C(C)C)C2=O)CC1)c1ccc(Cl)c(Cl)c1 |
| 167 nM | 4.8 nM | 2.4 nM | CCN(C/C(=N\OC)[C@H](CCN1CCC(n2c(=O)n(CC(N)=O)c3ccccc32)CC1)c1ccc(Cl)c(Cl)c1)C(=O)c1cc(Cl)cc(Cl)c1 |
| 0.8 nM | 0.7 nM | 0.7 nM | CO/N=C(\CN(C)C(=O)c1cc(Cl)cc(Cl)c1)[C@H](CCN1CCC(N2CCCN(Cc3ccccn3)C2=O)CC1)c1ccc(Cl)c(Cl)c1 |
| 3.2 nM | 1.2 nM | 2.4 nM | CO/N=C(\CN(C)C(=O)c1cc(Cl)cc(Cl)c1)[C@H](CCN1CCC(N2CCCN(Cc3ccsc3)C2=O)CC1)c1ccc(Cl)c(Cl)c1 |
| 0.5 nM | 0.5 nM | 1.9 nM | CO/N=C(\CN(C)C(=O)c1cc(Cl)cc(Cl)c1)[C@H](CCN1CCC(N2CCCN(c3ccccn3)C2=O)CC1)c1ccc(Cl)c(Cl)c1 |
| 0.3 nM | 0.4 nM | 1.3 nM | CNC(=O)C[C@H]1CCCN(C2CCN(CC[C@@H](/C(CN(C)C(=O)c3cc(Cl)cc(Cl)c3)=N/OC)c3ccc(Cl)c(Cl)c3)CC2)C1=O |
| 11 nM | 1.7 nM | 1.3 nM | CO/N=C(\CN(C)C(=O)c1cc(Cl)cc(Cl)c1)[C@H](CCN1CCC(n2c(=O)n(CC(=O)O)c3ccccc32)CC1)c1ccc(Cl)c(Cl)c1 |
| 0.7 nM | 0.7 nM | 1 nM | CO/N=C(\CN(C)C(=O)c1cc(Cl)cc(Cl)c1)[C@H](CCN1CCC(N2CCCN(O)C2=O)CC1)c1ccc(Cl)c(Cl)c1 |
| 0.4 nM | 0.2 nM | 0.3 nM | CO/N=C(\CN(C)C(=O)c1cc(Cl)cc(Cl)c1)[C@H](CCN1CCC(N2CCCN(CC(N)=O)C2=O)CC1)c1ccc(Cl)c(Cl)c1 |
| 29 nM | 1.8 nM | 1.3 nM | CO/N=C(\CN(C)C(=O)c1cc(Cl)cc(Cl)c1)[C@H](CCN1CCC(n2c(=O)n(CC(=O)OC)c3ccccc32)CC1)c1ccc(Cl)c(Cl)c1 |
| 0.4 nM | 0.5 nM | 0.6 nM | CO/N=C(\CN(C)C(=O)c1cc(Cl)cc(Cl)c1)[C@H](CCN1CCC(N2CCCN(CCNS(C)(=O)=O)C2=O)CC1)c1ccc(Cl)c(Cl)c1 |
